Assay results published in patent US20070031509A1, “Breakthrough to cure psoriasis, psoriatic arthritis and treatment of other unrelated skin disorders, and external rectal and genital itching” (priority 2005, published 2007).

Legend:
eczema = assay: Earlier use of urea on eczema symptoms of type 2 diabetic patient; format: in vivo, human; conditions: high blood-sugar level, 16 years ago
psoriasis = assay: Comparison of performance of OTCs, zinc oxide and copper lactate on silvery patches L6-L8; format: in vivo, human
Description: As mentioned above, the presence and growth of L6, L7 and L8 lesions gave me an opportunity to compare the performance of my invention against the readily available OTCs. As mentioned earlier, coal tar, sea salts and several combinations of acids are used for treatment of psoriasis and eczema.
From June 1966 to March 1996, The U. S. Department of Interior (DOI) employed me as a research engineer. During the course of my employment with DOI, I had conducted research in more than 100 coal and salt mines. I have a sound knowledge of the properties of coal and salts. The following comments are based on my experimentations and my in-depth knowledge of the physical and chemical properties of these minerals. Furthermore, based on my own knowledge and past experience with the OTCs, I became suspicious of the validity of the claims made by the manufactures of OTCs containing coal tar and sea salts. Therefore, I designed a simple experimental procedure to compare effectiveness of readily available OTCs to treat psoriasis. Experimental procedure: Before each topical application, each of the three silvery patches was washed with warm soapy water and towel dried. Each OTC product was gently massaged onto all three silvery patches three times daily. Topical applications were made in accordance with the drug manufacturer's recommendations. At the end of four hours, physical observations were made. Silvery patches were again washed and dried and medication was applied again. Each product was tested for a period of four days. After completion of one test series and start of another, silvery patches were left alone for a period of four days to avoid carryover affects from one product to another.
Immune suppressing medications such as Elidel and Protopic and all other prescription drugs known to potentially contribute to cancer were excluded from this test series. Prescription phototherapy and systemics having different course of action and generally, they are not recommended for mild cases of psoriasis. Therefore, these medications were beyond the scope of this study.
Therefore, based on prior knowledge, for extension of this study, an ointment containing 40% zinc oxide was selected for testing.
8. Copper Lactate: Even though during this testing phase, no bleeding points were developed, it was still decided to explore the impact of copper lactate alone on psoriatic lesions. Copper lactate for this test series was produced by reacting yogurt in a copper container rather than a brass utensil.

[1] = after ten days of daily applications

Structure (SMILES)	treatment of dry, flaky, cracked, and bleeding symptoms of eczema (eczema)	reduction in psoriatic lesions (psoriasis; after seven days of topical applications) [%]	red thickened skin of the lesion whose silvery patch came off (psoriasis; [1])	reduction in size of remaining two silvery lesions (psoriasis; [1]) [%]	silvery patch of one of the psoriatic lesions (psoriasis; [1])	swelling (psoriasis; after the first day of applications, no bleeding points)	pain and swelling (psoriasis; after three days of applications)	silvery scales (psoriasis; after three days of topical application)	silvery patches on the remaining two lesions (psoriasis; further topical applications)
NC(N)=O [Urea]	totally ineffective								
CC(O)C(=O)[O-].CC(O)C(=O)[O-].[Cu+2] (stereo not drawn) [copper lactate]		20	completely disappeared	20	flaked off	significant reduction	completely gone	fell off	have not eliminated
